IC50 data for one compound are collected here from patent US20100069407A1, “CXCR2 inhibitors” (priority 2006, published 2010).

In the assay the target is T1, human CXCR2 receptor (Homo sapiens, UniProt P25025).
T1 construct: purchased Biosignal Packard Inc; host or cells: Chinese hamster ovary cell (CHO-K1) membranes
T1 sequence (P25025 1-360): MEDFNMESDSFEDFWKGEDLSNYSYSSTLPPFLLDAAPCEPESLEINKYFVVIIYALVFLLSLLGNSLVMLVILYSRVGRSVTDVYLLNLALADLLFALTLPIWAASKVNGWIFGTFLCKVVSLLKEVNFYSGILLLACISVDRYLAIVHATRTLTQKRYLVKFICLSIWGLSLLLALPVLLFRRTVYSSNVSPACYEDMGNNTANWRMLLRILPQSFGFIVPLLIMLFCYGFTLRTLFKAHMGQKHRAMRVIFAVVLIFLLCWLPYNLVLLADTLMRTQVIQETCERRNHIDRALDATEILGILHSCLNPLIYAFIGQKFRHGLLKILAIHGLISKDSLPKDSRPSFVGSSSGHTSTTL
Nature of the assay: [35S]-GTPγS binding assay for human CXCR2 receptor using SPA technology. The following applies: CHO-K1 membranes expressing human CXCR2; 100 nM IL-8 stimulation. Format: biochemical. (In general: GTPγS resists hydrolysis and so accumulates on activated G proteins.)

Experimental: The assay is performed in duplicate in 96 well Optiplate™ microplate in a final volume of 250 μl per well. Compounds are diluted in DMSO (0.5% final concentration) and incubated in 20 mM HEPES buffer pH 7.4 containing 10 mM MgCl2, 100 mM NaCl, 1 mM EDTA plus 100 nM IL-8, 50 μM GDP and 500 μM [^35S]GTPγS per well. SPA beads (1 mg/well final concentration) were pre-mixed with the membranes (10 μg/well final concentration) in assay buffer: 20 mM HEPES buffer pH 7.4 containing 10 mM MgCl2, 100 mM NaCl, 1 mM EDTA. The bead membrane mixture is added to each well, plates are sealed and incubated at room temperature for 60 minutes. The plate is centrifuged and read on Packard TopCount™ scintillation counter, program [^35S dpm] for 1 min/well. Data are expressed as the % response to 100 nM IL-8 minus basal.

As for `CCc1nc2nc(CSc3cccc(F)c3F)cc(O)n2n1` [Example 4], the IC50 (commonly the point on the concentration scale where inhibition reaches its midpoint) turned out to be 2400 nM.
